According to patent publication US20260199289A1, “USE OF GLYCOGEN METABOLISM INHIBITORS FOR THE TREATMENT OF CANCER” (THE UNIVERSITY OF VERMONT AND STATE AGRICULTURAL COLLEGE, priority 2022, published 2026):
“Also recorded” adds a separate entry of the source.

What was measured:
HepG2 cells = conditions: HepG2 cells; cited from earlier work
8505C tumors = assay: 8505C xenograft tumor growth in nude mice; type: in vivo, mouse; conditions: intraperitoneal, 50 mg/kg CP-91,149, 10 mg/kg sorafenib, 6-7 days a week
Method: Ethics statement and animal modeling—All animal procedures were approved by Institutional Animal Care and Use Committee (IACUC) at the University of Vermont. All animals were maintained in pathogen-free conditions and cared for in accordance with IACUC policies and certification. All surgeries were performed with isoflurane anesthesia. Temperature-controlled post-surgical monitoring was implemented to minimize suffering. Mice carrying anaplastic thyroid tumors were euthanized at designated time points for tumor collection. Signs of ulceration or a maximum individual tumor size of 2000 mm^3 were used as a protocol-enforced endpoint.
Mice were given food and water ad libitum. […] These doses were based on previous reports.

8505C cells [1] = assay: Drug synergy by coefficient of drug interaction (SRB assay); type: cell-based, human; conditions: for drug interaction with 6-AN (coefficient of drug interaction class): combination with 6-AN (PPP inhibition)
Method: In Vitro Cell Staining for Measuring Drug Efficacy—Thyroid cells (4.0×10^3) were seeded in 96 well plates with 100 μl CTM and allowed to adhere overnight. 100 μl of CTM containing 2× concentration of compound was overlayed in each well for 48 hours unless otherwise indicated. Each well then received 100 μl of 10% w/v cold trichloroacetic acid (Fisher) and incubated at 4° C. for 1 hour to fix the cells. Each well was rinsed 3× with DI H2O and stained with 100 μl 0.057% w/v sulforhodamine B (SRB, Sigma-Aldrich) for 30 minutes at room temperature in the dark. Wells were washed 4× with 300 μl 1% v/v acetic acid (Fisher), and remaining SRB stain was solubilized with 200 μl of 10 mM Tris buffer, pH 10.5 (Fisher). Absorbance was measured at 564 nm with a Synergy 2 Multi-Detection Microplate Reader (Agilent Technologies) and normalized to a vehicle control. Drug synergy was evaluated using the coefficient of drug interaction (CDI) formula: CDI=AB/(A×B)×100, where AB is the percent remaining cells of an indicated combination treatment, A is the average percent remaining cells of agent 1 alone, and B is the average percent remaining cells of agent 2 alone. […] Hao et al., “Effect of Lumiracoxib on Proliferation and Apoptosis of Human Nonsmall Cell Lung Cancer Cells In vitro,” Chin Med J (Engl) 121:602-607 (2008), which is hereby incorporated by reference in its entirety.

8505C cells [2] = assay: Reactive oxygen species quantification (H2DCFDA); type: cell-based, human; conditions: for ROS in CP-treated cells with the exogenous agent: 8505C cells treated with CP-91,149
Method: Quantification of Reactive Oxygen Species—Thyroid cells (1.0-2.0×10^4) were seeded in a black 96 well plate in 200 μl CTM and allowed to adhere overnight. Wells were washed with PBS and incubated with or without 25 μM H2DCFDA for 45 minutes at 37° C. in a non-CO2 incubator with compounds of interest diluted in phenol-red free RPMI (supplemented with 2 mM glutamine and 10% charcoal-stripped serum). Wells were washed with PBS and received compounds of interest diluted in phenol-red free, supplemented RPMI and incubated at 37° C. in a SpectraMax M4 Microplate Reader (Molecular Devices) to record fluorescent measurements (Ex/Em=485/535 nm) every 15 minutes overnight. Maximum fluorescence intensity was determined (~6 hours), background signal (—H2DCFDA) was subtracted from each group, and corrected values were normalized to the vehicle control.

8505C cells [3] = assay: SRB cell viability assay in ATC cells; type: cell-based, human; conditions: for cell viability of CP-treated cells with the exogenous agent: 8505C cells treated with CP-91,149
Method: In Vitro Cell Staining for Measuring Drug Efficacy—Thyroid cells (4.0×10^3) were seeded in 96 well plates with 100 μl CTM and allowed to adhere overnight. 100 μl of CTM containing 2× concentration of compound was overlayed in each well for 48 hours unless otherwise indicated. Each well then received 100 μl of 10% w/v cold trichloroacetic acid (Fisher) and incubated at 4° C. for 1 hour to fix the cells. Each well was rinsed 3× with DI H2O and stained with 100 μl 0.057% w/v sulforhodamine B (SRB, Sigma-Aldrich) for 30 minutes at room temperature in the dark. Wells were washed 4× with 300 μl 1% v/v acetic acid (Fisher), and remaining SRB stain was solubilized with 200 μl of 10 mM Tris buffer, pH 10.5 (Fisher). Absorbance was measured at 564 nm with a Synergy 2 Multi-Detection Microplate Reader (Agilent Technologies) and normalized to a vehicle control. Drug synergy was evaluated using the coefficient of drug interaction (CDI) formula: CDI=AB/(A×B)×100, where AB is the percent remaining cells of an indicated combination treatment, A is the average percent remaining cells of agent 1 alone, and B is the average percent remaining cells of agent 2 alone. […] Hao et al., “Effect of Lumiracoxib on Proliferation and Apoptosis of Human Nonsmall Cell Lung Cancer Cells In vitro,” Chin Med J (Engl) 121:602-607 (2008), which is hereby incorporated by reference in its entirety. […]

[4] = tested on: Pancreatic adenocarcinoma cells; conditions: cited from earlier work
ATC = conditions: in vitro; cited from earlier work
8505C cells [5] = assay: Metabolic flux analysis (Seahorse ECAR and OCR); type: cell-based, human; conditions: 8505C cells
Method: Metabolic Flux Analysis—Thyroid cells (5.0×10^4) were plated in a 96 well Seahorse culture plate with compounds of interest diluted in 200 μl CTM for 24 hours. Cells were washed with PBS and equilibrated for 1 hour at 37° C. in a non-CO2 incubator with compounds of interest diluted in Seahorse RPMI (supplemented with 11.1 mM glucose, 2 mM glutamine, and 5% serum) before analysis of OCR and ECAR in a Metabolic Flux Analyzer (Seahorse Bioscience, North Billerica, MA 96XP).

ATC xenograft = conditions: cited from earlier work
[6] = ATC cell viability, combination with CP-91,149

CNC(=O)c1cc(Oc2ccc(NC(=O)Nc3ccc(Cl)c(C(F)(F)F)c3)cc2)ccn1 [sorafenib, 4-[4-[[4-chloro-3-(trifluoromethyl)phenyl]carbamoylamino]phenoxy]-N-methylpyridine-2-carboxamide]
synergy with CP-91,149 (HepG2 cells): displayed synergy | tumor growth (8505C tumors): notably stunted | drug interaction with 6-AN (coefficient of drug interaction class) (8505C cells [1]; 8505C cells, 48 hours): drug synergy; also recorded: synergistic | drug interaction with inhibition of glycolysis (8505C cells [1]; 8505C cells, 48 hours): not glycolysis | drug interaction with CP-91,149 (coefficient of drug interaction class) (8505C cells [1]; [6]): high degree of drug synergy; also recorded: profound drug synergy

Nc1cc(C(F)(F)F)c(-c2cc(N3CCOCC3)nc(N3CCOCC3)n2)cn1 [buparlisib, 5-(2,6-dimorpholin-4-ylpyrimidin-4-yl)-4-(trifluoromethyl)pyridin-2-amine]
drug interaction with CP-91,149 (coefficient of drug interaction class) (8505C cells [1]; [6]): drug additivity rather than synergy

NC(=O)C1=CN([C@@H]2O[C@H](COP(=O)(O)OP(=O)(O)OC[C@H]3O[C@@H](n4cnc5c(N)ncnc54)[C@H](OP(=O)(O)O)[C@@H]3O)[C@@H](O)[C@H]2O)C=CC1 [NADPH]
ROS in 2-DG-treated cells with the exogenous agent (8505C cells [2]; 8505C cells treated with 2-DG, replete media): reduced ROS in both treatment groups | ROS in CP-treated cells with the exogenous agent (8505C cells [2]): ablated; also recorded: reduced ROS in both treatment groups; also recorded: attenuated | cell viability of 2-DG-treated cells with the exogenous agent (8505C cells [3]; 8505C cells treated with 2-DG, 48 hours, replete media): only rescued cell viability in the CP-treated cells | cell viability of CP-treated cells with the exogenous agent (8505C cells [3]): partially rescued; also recorded: only rescued cell viability in the CP-treated cells; also recorded: can rescue ATC cells from CP-mediated loss in cell viability

O=C(O)C(=O)CBr [3-BP, 3-bromopyruvic acid]
drug interaction with CP-91,149 (coefficient of drug interaction class) (8505C cells [1]; [6]): failed to achieve synergy

O=C(N[C@@H](Cc1ccc(F)cc1)C(=O)N1CCC(O)CC1)c1cc2cc(Cl)ccc2[nH]1 [CP-320626, 5-chloro-N-[(2S)-3-(4-fluorophenyl)-1-(4-hydroxypiperidin-1-yl)-1-oxopropan-2-yl]-1H-indole-2-carboxamide]
cellular metabolism [4]: inhibited cellular respiration, the PPP, anaplerosis, and synthesis of ribose and fatty acids | sensitivity of cells [4]: sensitive

CC(=O)c1c(C)c2cnc(Nc3ccc(N4CCNCC4)cn3)nc2n(C2CCCC2)c1=O [palbociclib, 6-acetyl-8-cyclopentyl-5-methyl-2-[(5-piperazin-1-ylpyridin-2-yl)amino]pyrido[6,5-d]pyrimidin-7-one]
drug interaction with CP-91,149 (coefficient of drug interaction class) (8505C cells [1]; [6]): did not achieve synergy

NC(=O)c1ccc(N)nc1 [6-AN, 6-aminonicotinamide]
drug interaction with CP-91,149 (coefficient of drug interaction class) (8505C cells [1]; [6]): remarkable drug synergy

CC(=O)N[C@@H](CS)C(=O)O [N-acetylcysteine]
ROS in CP-treated cells with the exogenous agent (8505C cells [2]): ablated | ROS in CP-treated cells with the exogenous agent (8505C cells [2]; listed as N-acetyl cysteine): attenuated | cell viability of CP-treated cells with the exogenous agent (8505C cells [3]; listed as N-acetyl cysteine): can rescue ATC cells from CP-mediated loss in cell viability | cell viability of CP-treated cells with the exogenous agent (8505C cells [3]; listed as NAC): partially rescued

COc1cc2nccc(Oc3ccc(NC(=O)NC4CC4)c(Cl)c3)c2cc1C(N)=O [lenvatinib, 4-[3-chloro-4-(cyclopropylcarbamoylamino)phenoxy]-7-methoxyquinoline-6-carboxamide]
drug interaction with CP-91,149 (coefficient of drug interaction class) (8505C cells [1]; [6]): drug additivity rather than synergy

CN(C)C(=N)N=C(N)N [metformin]
ATC proliferation (ATC): limit ATC proliferation in vitro

COc1cccc2c1C(=O)c1c(O)c3c(c(O)c1C2=O)C[C@@](O)(C(=O)CO)C[C@@H]3O[C@H]1C[C@H](N)[C@H](O)[C@H](C)O1 [doxorubicin]
drug interaction with CP-91,149 (coefficient of drug interaction class) (8505C cells [1]; [6]): did not achieve synergy

O=CC[C@@H](O)[C@H](O)[C@H](O)CO [2-DG, 2-deoxyglucose]
extracellular acidification rate (ECAR) (8505C cells [5]): significantly inhibited | reactive oxygen species (ROS) levels (8505C cells [2]; 8505C ATC cells): only modestly increased ROS levels | ROS levels with excess glucose (8505C cells [2]; 8505C cells): only in CP-treated cells | cell viability with excess (2 mM) pyruvate (8505C cells [3]; 8505C cells, 48 hours): could be rescued | cell viability with excess (25 mM) glucose (8505C cells [3]; 8505C cells, 48 hours): rescued cell viability | cell viability with pyruvate depletion (8505C cells [3]; 8505C cells, 48 hours): only significantly impacted the 2-DG-treated cells | drug interaction with 6-AN (coefficient of drug interaction class) (8505C cells [1]; 8505C cells, 48 hours): drug antagonism | CDI values in combination with CP-91,149 (8505C cells [1]; [6]): ~1.0 | drug interaction with CP-91,149 (coefficient of drug interaction class) (8505C cells [1]; [6]): drug additivity | lactate production (ATC xenograft): reduced lactate production | tumor size (ATC xenograft): failed to significantly reduce tumor size
